# Measured values taken from patent US8883740B2, “Peptides, compositions, and uses thereof” (Fundacao de Amparoa Pesquisa do Estado de Sao Paulo-Fapesp, priority 2008, dated 2014).
# Several values for one entry are separate records, joined by “and”; a condition that tells them apart may be missing. Identical values can stand only once.
# Experiments:
# [1] = test system: endothelial cells (HUVEC); test: Cell viability, MTT colorimetric assay under reduced serum; assay type: cell-based; details: 5 μg/ml; 48 hours; RPMI 1640 with 1% FBS; vs control without peptide
# Protocol: Tests for cell viability (% viability) was realized utilizing reduced serum conditions and MTT (3-[4,5-Dimethylthiazol-2-yl]-2,5-Diphenyltetrazolium bromide) colorometric assay (Mosmann, 1983). The results are illustrated in FIGS. 1 to 3.
# FIG. 1 illustrates the effect of peptides (5 μg/ml) on cell viability (% viability) of endothelial cells (HUVEC) when incubated together for 48 hours in RPMI 1640 with 1% FBS. The control has cells incubated in RPMI 1640 with 1% FBS (with no peptide).
# FIG. 2 illustrates the effect of different concentrations of CNF011.05B on cell viability (% viability) of endothelial cells when incubated together for 120 hours in RPMI supplemented with 1% FBS.
# FIG. 3 illustrates the effect of different concentrations of CNF011.05D on cell viability (% viability) of endothelial cells when incubated together for 48 hours in RPMI supplemented with 1% FBS.
# punch wounds [2] = test: Wound healing in pigs, 8 mm punch wounds, granulation tissue filling; assay type: in vivo, Domestic Yorkshire Crossbred pigs
# Protocol: Levels of granulation tissue formation—a marker of the proliferative phase of Healing (Cascade)—were assessed in punch wounds after daily administrations of CNF011.05D or positive control (Bacaplermin gel 0.01%). The wounded animals were Domestic Yorkshire Crossbred pigs of 20 weeks of age, which were anesthesized and operated on the dorsal side of their backs. Following clipping of hair and scrub sterilization, 8 full thickness wounds were made in each pig using an 8 mm biopsy punch.
# Following wounding and drying with sterile gauze, the wounds were subjected to application with different treatments (see Table 5 and 6) followed by bandaging. Long-term postoperative monitoring included daily inspection of the surgical sites for 14 days. The daily inspection included cleansing of the wounds, reapplication of the same treatments—Standard Care or Positive Control or CNF011.05D (1×) or CNF011.05D (100×)—followed by rebandaging. […]
# Human fibroblasts [3] = test: Production of tenascin by fibroblasts, indirect immunofluorescence; assay type: cell-based; details: 0.35 μg; 4 days; vs saline; p<0.001
# Protocol: (§1) Human fibroblasts were acquired from ear lobe skin fragments (0.5×0.5 cm) from 5 normal African-Brazilian female donors, with age ranging from 10 to 40 years old, respectively called 2/05, 3/05, 4/05, 6/05 and 8/05. The donors were submitted to excisional biopsies in a surgical environment after free voluntary consent.
# (§2) Cells from the 6th subculture were placed in sterile culture plates and incubated with CNF011.05D at concentrations of 0.35 μg and 5 μg in culture medium for 4 days. The control group consisted of fibroblasts cultured under the same conditions, in which saline solution (a solvent of CNF011.05D) was added in the place of CNF011.05D.
# (§3) Indirect immunofluorescence was performed using (1) Anti-fibronectin (cellular) mAb OR anti-human tenascin mAb (Sigma-USA); and (2) Alexa Fluor 488 (Molecular Probes-USA).
# Samples tested are CN (cells treated with saline), TN-0.35 (cells treated with CNF011.05D at 0.35 μg), and TN-5 μg (cells treated with CNF011.05D at 5 μg).
# Neutrophils [4] = test: NO2 production by neutrophils, Griess reaction; assay type: cell-based, Wistar Rats; details: 1.5 μg/ml; 18 hours; absorbance at 550 nm
# Protocol: Neutrophils were cultured for 18 hours with CNF011.05D (1.5 μg/ml), and production of NO metabolite NO2 secreted into culture was assessed by use of the Griess reaction, and measurement of absorbance at 550 nm.
# collagen in the dermis = test: Production of collagen in the dermis after subcutaneous doses; assay type: in vivo
# Text: Levels of collagen were examined after different administrations of CNF011.05D: a single subcutaneous dose, two subcutaneous doses, and four subcutaneous doses.
# [5] = test system: primary cultured endothelial cells; test: Primary endothelial cell viability by flow cytometry (annexin V / propidium iodide), reduced serum; assay type: cell-based, Wistar Rats; details: reduced serum medium (1%), 24 hours
# Protocol: (§4) Neutrophils or primary cultured endothelial cells from Wistar Rats were cultured in reduced serum medium (1%) in presence of CNF011.05D (3.0 μm/mL) and/or […] L-NAME, an inhibitor of NO synthase (and accordingly, an inhibitor of NO and resulting metabolite NO2 production). After 24 hours, cell viability was measured using flow cytometry analysis with FITC annexin V (1:500) and propidium iodide (10 μl of 50 mg/ml). The viability of both neutrophils (FIG. 4) and primary endothelial cells (FIG. 5) was increased with the peptide CNF011.05D alone, and this increase was diminished in presence of L-NAME.
# Neutrophils [6] = test: Neutrophil viability by flow cytometry (annexin V / propidium iodide), reduced serum; assay type: cell-based, Wistar Rats; details: reduced serum medium (1%), 24 hours
# Protocol: as §4
# Human fibroblasts [7] = test: Production of fibronectin by fibroblasts, indirect immunofluorescence; assay type: cell-based; details: 0.35 μg; 4 days; vs saline; p<0.001
# Protocol: as §1, §2, §3
# Samples tested are FBN-CN (cells treated with saline), FBN-0.35 (cells treated with CNF011.05D at 0.35 μg), and FBN-5 μg (cells treated with CNF011.05D at 5 μg).
# punch wounds [8] = test: Wound healing in rats, 6 mm punch wounds; assay type: in vivo, Wistar rats
# Protocol: Size and microscopic appearance of punch wounds was assessed in rats after a single dose of CNF011.05D. The rats were Wistar rats of 6-to-8 weeks of age, which were anesthesized and operated on the dorsal side of their backs. Following clipping of hair and scrub sterilization, wounds were made in each rat using a 6 mm biopsy punch. Following wounding and drying with sterile gauze, wounds were subjected to (1) bandaging (Standard Care) or (2) application of CNF011.05D (235 nM in saline) followed by bandaging. Wounds evaluated at Days 3, 7, 14, and 21 were assessed by veterinarians and documented as to whether the wound was healing normally for the day post-wounding, and the size of the wound in cm^2.
# [9] = 1x: 1 ml at 1.57 μg/ml in saline, daily, six wounds, Day 5
# [10] = 1x: 1 ml at 1.57 μg/ml in saline, daily, six wounds, Day 7
# [11] = 100x: 1 ml at 157 μg/ml in saline, daily, six wounds, Day 7
# [12] = CNF011.05D 3.0 μm/mL plus 1M L-NAME
sequence,measurement,setting,value
APLWILSTDYDNYAIGYSC [CNF011.05B],cell viability (% viability),[1],augment
YAIGYSCKDYK [CNF011.05D],Granulation Tissue Filling No (wounds),"punch wounds [2]; 1x: 1 ml at 1.57 μg/ml in saline, daily, six wounds, Day 1",6
same,Granulation Tissue Filling No (wounds),punch wounds [2]; [9],3
same,Granulation Tissue Filling Yes (wounds),punch wounds [2]; [9],3
same,Granulation Tissue Filling No (wounds),punch wounds [2]; [10],2
same,Granulation Tissue Filling Yes (wounds),punch wounds [2]; [10],4
same,Granulation Tissue Filling Yes (wounds),"punch wounds [2]; 1x: 1 ml at 1.57 μg/ml in saline, daily, six wounds, Day 10",6
same,Granulation Tissue Filling Yes (wounds),"punch wounds [2]; 1x: 1 ml at 1.57 μg/ml in saline, daily, six wounds, Day 14",6
same,Granulation Tissue Filling No (wounds),"punch wounds [2]; 1x: 1 ml ointment at 1.57 μg/ml in Hydroxyethyl cellulose/Glycerin (20%/80%), two wounds, Day 1",2
same,Granulation Tissue Filling Yes (wounds),"punch wounds [2]; 1x: 1 ml ointment at 1.57 μg/ml in Hydroxyethyl cellulose/Glycerin (20%/80%), two wounds, Day 5",2
same,Granulation Tissue Filling Yes (wounds),"punch wounds [2]; 1x: 1 ml ointment at 1.57 μg/ml in Hydroxyethyl cellulose/Glycerin (20%/80%), two wounds, Day 7",2
same,Granulation Tissue Filling Yes (wounds),"punch wounds [2]; 1x: 1 ml ointment at 1.57 μg/ml in Hydroxyethyl cellulose/Glycerin (20%/80%), two wounds, Day 10",2
same,Granulation Tissue Filling Yes (wounds),"punch wounds [2]; 1x: 1 ml ointment at 1.57 μg/ml in Hydroxyethyl cellulose/Glycerin (20%/80%), two wounds, Day 14",2
same,Granulation Tissue Filling No (wounds),"punch wounds [2]; 100x: 1 ml at 157 μg/ml in saline, daily, six wounds, Day 1",6
same,Granulation Tissue Filling No (wounds),"punch wounds [2]; 100x: 1 ml at 157 μg/ml in saline, daily, six wounds, Day 5",6
same,Granulation Tissue Filling No (wounds),punch wounds [2]; [11],5
same,Granulation Tissue Filling Yes (wounds),punch wounds [2]; [11],1
same,Granulation Tissue Filling Yes (wounds),"punch wounds [2]; 100x: 1 ml at 157 μg/ml in saline, daily, six wounds, Day 10",6
same,Granulation Tissue Filling Yes (wounds),"punch wounds [2]; 100x: 1 ml at 157 μg/ml in saline, daily, six wounds, Day 14",6
same,Granulation Tissue Filling No (wounds),"punch wounds [2]; 100x: 1 ml ointment at 157 μg/ml in Hydroxyethyl cellulose/Glycerin (20%/80%), two wounds, Day 1",2
same,Granulation Tissue Filling Yes (wounds),"punch wounds [2]; 100x: 1 ml ointment at 157 μg/ml in Hydroxyethyl cellulose/Glycerin (20%/80%), two wounds, Day 5",2
same,Granulation Tissue Filling Yes (wounds),"punch wounds [2]; 100x: 1 ml ointment at 157 μg/ml in Hydroxyethyl cellulose/Glycerin (20%/80%), two wounds, Day 7",2
same,Granulation Tissue Filling Yes (wounds),"punch wounds [2]; 100x: 1 ml ointment at 157 μg/ml in Hydroxyethyl cellulose/Glycerin (20%/80%), two wounds, Day 10",2
same,Granulation Tissue Filling Yes (wounds),"punch wounds [2]; 100x: 1 ml ointment at 157 μg/ml in Hydroxyethyl cellulose/Glycerin (20%/80%), two wounds, Day 14",2
same,tenascin production by fibroblasts,Human fibroblasts [3],significant difference
same,cell viability (% viability),[1],augment
same,production of NO2,Neutrophils [4],increases
same,Treated Skin Collagen (%),"collagen in the dermis; four subcutaneous doses 0.30 μg (total 1.20), 4 weeks after dose",37.60% and 34.94%
same,Treated Skin Collagen (%),"collagen in the dermis; single subcutaneous dose 0.30 μg, 1 week after dose",41.20% and 57.15%
same,Treated Skin Collagen (%),"collagen in the dermis; single subcutaneous dose 0.30 μg, 2 weeks after dose",43.78% and 39.20%
same,Treated Skin Collagen (%),"collagen in the dermis; single subcutaneous dose 0.30 μg, 12 weeks after dose",29.57% and 27.22%
same,Treated Skin Collagen (%),"collagen in the dermis; two subcutaneous doses 0.30 μg one week apart (total 0.60), 2 weeks after dose",44.19% and 37.91%
same,Treated Skin Collagen (%),"collagen in the dermis; two subcutaneous doses 0.30 μg one week apart (total 0.60), 12 weeks after dose",39.23% and 47.33%
same,increase of viability of primary endothelial cells in presence of L-NAME,[5]; [12],diminished
same,viability of primary endothelial cells,[5]; CNF011.05D alone 3.0 μm/mL,increased
same,increase of viability of neutrophils in presence of L-NAME,Neutrophils [6]; [12],diminished
same,viability of neutrophils,Neutrophils [6]; CNF011.05D alone 3.0 μm/mL,increased
same,production of fibronectin by fibroblasts,Human fibroblasts [7],significant enhancement
same,Day 3 Size of punch wounds,"punch wounds [8]; 235 nM in saline, single dose, then bandaging, Day 3, 8 rats per timepoint",0.200 cm^2
same,Day 7 Size of punch wounds,"punch wounds [8]; 235 nM in saline, single dose, then bandaging, Day 7, 8 rats per timepoint",0.084 cm^2
same,Day 14 Size of punch wounds,"punch wounds [8]; 235 nM in saline, single dose, then bandaging, Day 14, 8 rats per timepoint",0.053 cm^2
same,Day 21 Size of punch wounds,"punch wounds [8]; 235 nM in saline, single dose, then bandaging, Day 21, 8 rats per timepoint",Scar **
same,scar size and color,"punch wounds [8]; 21 days, in comparison to Standard Care (negative control)",scars of reduced size and color
